“And” between values parts separate entries of the source, which are not always exact repeats. Equal values may be shown once. “Also recorded” adds a separate entry of the source. Read-outs that look alike come from different tables or passages of the source.
Experiments:
H9C2 cells = experiment: cAMP accumulation in H9C2 cells; type: cell-based; conditions: 5 μM ISO, 3 minutes, 10 μM drug
Excerpt: […] Fludarabine ((+)-2-Fluoro-9-(5-O-phosphono-β-D-arabinofuranosyl)-9H-purin-6-amine) and Cladribine (2-chloro-2′-deoxyadenosine) are anti-cancer drugs, Adefovir (Bis(2,2-dimethylpropanoyloxymethyl)[2-(6-amino-9H-purin-9-yl)ethoxymethyl]phosphonate) and Zidovudine are anti-HIV drugs. Zidovudine-TP is a metabolite of zidovudine which inhibits virus replication. TP; triphosphate. 3-Deazaadenosine, Formycin A (7-Amino-3-(β-D-ribofuranosyl)-1H-pyrazolo[4,3-d]pyrimidine), 2-Far (2-Fluoroadenosine), formycin A ((2S,3R,4S,5R)-2-(7-amino-2H-pyrazolo[5,4-e]pyramidin-3-yl-5-(hydroxymeth-yl)oxolane-3,4-diol), 2-FD (2-Fluoro-2′-deoxyadenosine) and 2′5′ ddAdo (2′5′-dideoxyadenosine) are experimental drugs.
(§1) Mice were anesthetized with 2.5% tribromoethanol (0.010 to 0.015 mL per gram of body weight) injected intraperitoneally, and echocardiography was performed with ultrasonography (ACUSON Sequoia C256, Siemens Medical Solutions, Malvern, Pa.). For acute injection of isoproterenol, forskolin and milrinon, a PE-10 catheter was inserted into the right jugular vein, and drugs were injected at the rate of 1 μl/s. cAMP accumulation assay in H9C2 cells, a cardiac myoblast cell line, was examined as previously described.

type 5 AC = type 5 AC (Homo sapiens, UniProt O95622); experiment: Double-reciprocal plots of type 5 AC catalytic activity against ATP
type 5 AC, sequence (O95622 whole entry, the tested form may be a part): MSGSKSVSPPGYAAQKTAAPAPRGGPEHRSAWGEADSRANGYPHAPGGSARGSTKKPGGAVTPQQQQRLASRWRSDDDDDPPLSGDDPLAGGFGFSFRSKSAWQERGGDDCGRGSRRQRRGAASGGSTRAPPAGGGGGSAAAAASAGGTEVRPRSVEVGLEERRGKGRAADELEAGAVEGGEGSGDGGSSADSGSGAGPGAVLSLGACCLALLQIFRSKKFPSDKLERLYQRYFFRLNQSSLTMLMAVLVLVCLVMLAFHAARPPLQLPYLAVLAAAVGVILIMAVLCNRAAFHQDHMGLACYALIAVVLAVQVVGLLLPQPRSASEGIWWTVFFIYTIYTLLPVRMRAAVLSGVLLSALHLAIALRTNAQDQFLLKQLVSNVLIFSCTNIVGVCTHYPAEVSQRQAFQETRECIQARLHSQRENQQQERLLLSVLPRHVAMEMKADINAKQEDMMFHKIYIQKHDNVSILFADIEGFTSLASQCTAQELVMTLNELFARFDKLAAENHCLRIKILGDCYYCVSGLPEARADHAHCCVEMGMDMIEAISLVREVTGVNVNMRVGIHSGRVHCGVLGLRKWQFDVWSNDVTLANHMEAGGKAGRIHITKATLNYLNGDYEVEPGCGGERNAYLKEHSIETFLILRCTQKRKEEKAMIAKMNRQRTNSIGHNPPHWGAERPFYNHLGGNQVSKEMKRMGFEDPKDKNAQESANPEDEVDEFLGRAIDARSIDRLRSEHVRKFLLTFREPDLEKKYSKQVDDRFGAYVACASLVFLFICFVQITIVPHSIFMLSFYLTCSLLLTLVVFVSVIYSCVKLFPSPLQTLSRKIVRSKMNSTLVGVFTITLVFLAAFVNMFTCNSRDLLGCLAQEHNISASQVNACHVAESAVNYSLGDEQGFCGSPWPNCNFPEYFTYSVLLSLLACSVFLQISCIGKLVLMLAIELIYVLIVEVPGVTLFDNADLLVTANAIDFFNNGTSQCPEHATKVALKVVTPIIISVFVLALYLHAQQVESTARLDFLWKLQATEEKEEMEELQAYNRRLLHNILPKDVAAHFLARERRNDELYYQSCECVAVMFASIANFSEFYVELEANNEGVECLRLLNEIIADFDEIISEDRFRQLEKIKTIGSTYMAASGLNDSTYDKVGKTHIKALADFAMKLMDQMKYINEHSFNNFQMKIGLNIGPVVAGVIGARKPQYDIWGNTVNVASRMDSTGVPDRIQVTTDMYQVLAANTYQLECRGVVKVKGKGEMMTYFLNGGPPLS
Description: Hearts and striatum were dissected from the mice and membrane preparations were made as previously described. This crude membrane preparation was used in the AC assay. AC activity was measured by a modification of the method of Salomon et al. as previously described. […] Double-reciprocal plots were examined as previously described.

cardiac myocytes = experiment: ISO-induced apoptosis in cultured cardiac myocytes (DNA fragmentation ELISA); type: cell-based; conditions: 100 μM ISO, 48 h
Description: Cultured cardiac myocytes were incubated with 100 μM ISO in the presence or absence of AC5 inhibitors at the indicated concentrations for 48 h.

AC5 [1] = experiment: AC inhibition, recombinant AC proteins: AC5; type: biochemical
[2] = tested on: C57Bl/6 mice, chronic ISO infusion; experiment: Chronic ISO infusion heart failure model; type: in vivo, mouse
Excerpt: ISO with or without AC5 inhibitors were chronically infused with osmotic mini-pump implanted subcutaneously at indicated doses for 1 week in c57Bl/6 mice. Mice were then subjected to echocardiography (a) and the hearts were removed and subjected to pathological examinations such as myocardial apoptosis (b) and fibrosis (c). n=4-8.
In C57Bl/6 mice, ISO with or without AC5 inhibitors or metoprolol were chronically infused with an osmotic mini-pump at the indicated doses for 1 week. Mice were then subjected to echocardiography (a) and heart tissue were subjected to a myocardial apoptosis assay (b). *, p<0.01 vs vehicle. #, p<0.05 vs vehicle. .dagger., p<0.01 vs ISO. .dagger-dbl., p<0.05 vs ISO. n=4-15. […] Comparisons between multiple groups were made using ANOVA with post-hoc tests.
Tenofovir diphosphate (PMPA-PP), zidovudine monophosphate (MP), zidovudine diphosphate (PP), zidovudine triphosphate (TP), famciclovir penciclovir and valaciclovir were purchased from Moravek. Formycin A (FMA) and Formycin B (FMB) were purchased from Berry and Associates. All other reagents were from Sigma unless specified. Long-term infusion of isoproterenol (Sigma, St. Louis, Mo.) was performed for 7 days at a dose of 60 mg/kg/d with or without AC5 inhibitors by using a miniosmotic pump (ALZET model 2001, DURECT Corp, Cupertino, Calif.). Control mice received vehicle in pumps. Pumps were removed 24 hours before biochemical and physiological studies. Experiments were performed in 3- to 5-month-old male C57Bl/6, and in AC5Tg transgenic mice. This study was approved by the Animal Care and Use Committee at New Jersey Medical School.
as §1

AC5 [3] = target: T1, AC5 (UniProt P30803); experiment: AC inhibition, recombinant AC proteins: AC5; type: biochemical; conditions: read-out: IC50 for AC5
T1 construct: IC50 AC5; other: recombinant AC proteins; other: THFA: in the presence of Gs-α/GTPαS/forskolin

WT and AC5KO mice = experiment: Heart rate and arterial pressure in conscious WT and AC5KO mice; type: in vivo, mouse; conditions: for decrease in HR in conscious AC5KO / decrease in HR in conscious WT: 0.01 μg/g (0.01 mg/kg) i.v.
Excerpt: In AC5KO and WT mice, four ECG wires (New England Electric Wire Corporation, Lisbon, N.H., USA) were placed subcutaneously, a silicone elastomer tubing (Cardiovascular Instrument Corp., Wakefield, Mass., USA) was inserted into the right external jugular vein and a 1.4 F micromanometer catheter (Millar Instruments, Inc., Houston, Tex., USA) was inserted into the lower abdominal aorta via the femoral artery as described previously with some modifications. The ECG wires, the silicone elastomer tubing and the micromanometer catheter were tunneled subcutaneously to the back, externalized, and secured in a plastic cap. On the day of the study, each mouse was placed in the mouse holder, the jugular venous catheter was accessed and connected to a microliter syringe (Hamilton Co., Reno, Nev., USA), the 1.4 F micromanometer catheter was connected to a recorder (Dash 4u; Astro-Med, Inc., West Warwick, R.I., USA) and the ECG wires were connected to an ECG amplifier (Gould Inc., Cleveland, Ohio, USA). All experiments were recorded with animals in the conscious state. After at least 6 hours recovery from the implantation of the catheter, when a stable heart rate (HR) was achieved, the baseline ECG and arterial pressure (AP) were recorded for 5 min. Ach (0.05 μg/g) was then administered intravenously (i.v.), and the ECG and AP recording were repeated. A recovery period of 15 min was allowed for the HR and AP to return to baseline before administering the next drug. Baseline HR slowing was examined in response to phenylephrine (0.2 μg i.v.).
Electrocardiogram (ECG) wires, a jugular vein catheter for drug infusion, and a femoral artery catheter for arterial pressure monitoring were implanted under anesthesia. Measurements of left ventricular ejection fraction (LVEF) were taken using echocardiography under anesthesia with 2.5% tribromomethanol (0.010-0.015 ml/g body wt) injected intraperitoneally (i.p.). Intravenous (i.v.) infusion of ISO (0.04 μg/kg/min i.v. for 5 min) was performed using an infusion pump. To examine the responses to a muscarinic agonist, acetylcholine (ACh) (25 mg/kg i.p.) was co-administered i.p. during the i.v. infusion of ISO (0.04 μg/kg/min). In addition, in conscious mice ACh (0.01 and 0.05 mg/kg), atropine (0.25, 1 and 2 mg/kg), or verapamil (0.75 mg/kg) were administered i.v., and the ECG was recorded. A recovery period of 15 min was allowed for the HR to return to baseline before administering the next drug. To examine HR responses to baroreflex hypertension, phenylephrine (0.2 mg/kg i.v.) was infused, and the ECG and arterial pressure were measured.

AC = AC activity in heart membranes from WT and AC5KO mice; type: biochemical, mouse
Description: Protein concentration was measured by the method of Bradford using bovine serum albumin as a standard. AC activity was measured as described previously. AC activity was linear within the incubation time up to 30 min. In order to harvest hearts for tissue cAMP content measurements, mice were allowed to acclimate to the surroundings in the laboratory for an hour before sacrifice. Freshly isolated hearts were briefly immersed in liquid nitrogen. The tissue was homogenized in ice-cold 6% percholic acid, and cAMP was extracted as described before. The concentration of cAMP was determined with an RIA kit (PerkinElmer Life Sciences, Boston, Mass., USA).
cAMP production in membranes from the hearts of AC5KO and WT at 6 months of age was examined. The steady state AC activity was determined as the maximal capacity of cAMP production in the presence of ISO (100 μM ISO+100 μM GTP), GTPγS (100 μM) or forskolin (100 μM). […] Basal cardiac function was not decreased, but the response to ISO and muscarinic inhibition of ISO were attenuated.
Protein concentration was measured by the Bradford method using bovine serum albumin as a standard. AC activity was measured as described previously. AC activity was linear within the incubation time up to 30 min. For the study of Ca^2+ inhibition, the membranes were treated first with EGTA to extract the endogenous Ca^2+ prior to the assay. Free Ca^2+ concentrations were obtained with the use of 200 μmol/L EGTA buffers as described previously. The experiments with Ca^2+ inhibition were conducted in the presence of 100 μmol/L isoproterenol (ISO) plus 100 μmol/L GTP.
cAMP production in membranes from the hearts of AC5KO and WT mice at the age of 6 months were examined. The steady state AC activity in the membrane preparation was determined as the maximal capacity of cAMP production in the presence of ISO ([…], ISO+100 μmol/L GTP), guanosine-5′-O-(3-triophosphate) GTP[…]S (100 μmol/L), or forskolin (100 μmol/L). AC activity was decreased in AC5KO relative to that of WT by 35+/−4% (basal), 27+/−5% (ISO), 27+/−2% (GTPγS), and 40+/−5% (forskolin).

CC(Cn1cnc2c(N)ncnc21)OCP(=O)(O)OP(=O)(O)OP(=O)(O)O (stereo in doubt) [PMPA-PP, Tenofovir diphosphate]
inhibition of cAMP accumulation in H9C2 cells (H9C2 cells): little inhibition

Nc1nc(F)nc2c1ncn2[C@@H]1O[C@H](CO)[C@@H](O)[C@H]1O [2-fluoroadenosine, 2-Fluoroadenosine]
inhibition of cAMP accumulation in H9C2 cells (H9C2 cells): moderately inhibited
mode of inhibition with respect to ATP (type 5 AC): non-competitive

C[C@H]1O[C@@H](n2cnc3c(N)ncnc32)C[C@@H]1O [2′5′-dd-Ado, 2′5′-dideoxyadenosine]
ISO-induced apoptosis in cultured cardiac myocytes (cardiac myocytes): abolished
Selectivity ratio for AC5, AC5/AC2 (AC5 [1]; ratio of IC50 for AC5 to that for AC2): 0.00067
Selectivity ratio for AC5, AC5/AC3 (AC5 [1]; ratio of IC50 for AC5 to that for AC3): 0.0063
inhibition of cAMP accumulation in H9C2 cells (H9C2 cells): greatest inhibition
mode of inhibition with respect to ATP (type 5 AC): non-competitive
ISO-induced decrease in LVEF (and FS) ([2]; ISO 60 mg/kg/d 7 days, Ara-Ade 20 and 100 mg/kg/day, 2′5′ ddAdo 20 mg/kg/day): rescued LVEF and FS reduction
ISO-induced cardiac fibrosis ([2]; chronic ISO infusion): significantly inhibited
ISO-induced myocardial apoptosis in vivo ([2]; chronic ISO infusion): significantly inhibited
ISO-induced wall thickening (DESP, DPW) ([2]; chronic ISO infusion): neither Ara-Ade nor 2′5′ ddAdo inhibited
LVW/BW and myocyte cross sectional area ([2]; chronic ISO infusion): increased

Nc1ncnc2c1ncn2[C@H]1C[C@H](OP(=O)(O)O)[C@@H](CO)O1 [2′-d-3′-AMP]
IC50 (AC5 [3]): 0.82 µM

Nc1ncnc2c1ncn2[C@@H]1O[C@H](CO)[C@@H](OP(=O)(O)O)[C@H]1O [3′-AMP]
IC50 (AC5 [3]; THFA: in the presence of Gs-α/GTPαS/forskolin): 14.6 µM

CC(=O)OCC[N+](C)(C)C [ACh, acetylcholine]
decrease in HR in conscious AC5KO (WT and AC5KO mice; AC5KO): 1.3%
decrease in HR in conscious AC5KO (WT and AC5KO mice; AC5KO, listed as Ach): 7.5%
decrease in HR in conscious WT (WT and AC5KO mice; WT): 15%
decrease in HR in conscious WT (WT and AC5KO mice; WT, listed as Ach): 22%

C[N+](C)(C)CCOC(N)=O [Carbachol]
inhibition of ISO-stimulated AC activity in AC5KO (AC; 10 μM, AC5KO heart membranes): did not inhibit; also recorded: hardly detectable
decrease of ISO-stimulated AC activity in WT (AC; 10 μM, WT heart membranes): 21+/−3.4% and 21+/−3%

Nc1ncnc2c([C@@H]3O[C@H](CO)[C@@H](O)[C@H]3O)n[nH]c12 [FMA, 7-Amino-3-(β-D-ribofuranosyl)-1H-pyrazolo[4,3-d]pyrimidine]
inhibition of cAMP accumulation in H9C2 cells (H9C2 cells): moderately inhibited

CC(C)NCC(O)c1ccc(O)c(O)c1 (centres unmarked) [ISO, isoproterenol]
increase in AC activity in AC5KO (AC; 100 μmol/L ISO + 100 μmol/L GTP, AC5KO): 64+/−4 pmol/15 min/mg
increase in AC activity in WT (AC; 100 μmol/L ISO + 100 μmol/L GTP, WT): 78+/−6 pmol/15 min/mg

CNC[C@H](O)c1cccc(O)c1 [Phenylephrine]
systolic arterial pressure (WT and AC5KO mice; 0.2 μg/g (0.2 mg/kg) i.v., WT and AC5KO): increased systolic arterial pressure significantly in both WT and AC5KO; also recorded: increased systolic arterial pressure similarly in both WT and AC5KO

CN1[C@@H]2CC[C@H]1C[C@@H](OC(=O)C(CO)c1ccccc1)C2 (some centres unmarked) [atropine]
increase in HR in AC5KO (WT and AC5KO mice; 1 μg/g i.v., AC5KO): 19+/−7.5 beats/min
increase in HR in WT (WT and AC5KO mice; 1 μg/g i.v., WT): 102+/−22.2 beats/min

Nc1nc(Cl)nc2c1ncn2[C@H]1C[C@H](O)[C@@H](CO)O1 [cladribine, 2-chloro-2′-deoxyadenosine]
inhibition of cAMP accumulation in H9C2 cells (H9C2 cells): slight inhibition

COc1ccc(CCN(C)CCCC(C#N)(c2ccc(OC)c(OC)c2)C(C)C)cc1OC (centres unmarked) [verapamil]
change in HR in AC5KO (WT and AC5KO mice; 0.75 mg/kg i.v., AC5KO): −33+/−10 beats/min
change in HR in WT (WT and AC5KO mice; 0.75 mg/kg i.v., WT): −36+/−10 beats/min

Cc1cn([C@H]2C[C@H](N=[N+]=[N-])[C@@H](COP(=O)(O)OP(=O)(O)OP(=O)(O)O)O2)c(=O)[nH]c1=O [zidovudine-TP, zidovudine triphosphate]
inhibition of cAMP accumulation in H9C2 cells (H9C2 cells): little inhibition
mode of inhibition with respect to ATP (type 5 AC): competitive

— US8871735B2, “Methods and compositions for providing cardiac protection” (University of Medicine and Dentistry of New Jersey, priority 2008, dated 2014)
